Laboratory results taken from patent US11007169B2, “Cis-gnetin H and trans-gnetin H as therapeutic agents” (MIDDLE TENNESSEE STATE UNIVERSITY, priority 2014, dated 2021).

Legend:
[1] = test system: A549 cells (human lung carcinoma); experiment: Inhibition of cell proliferation, AlamarBlue fluorescent assay, A549; format: cell-based; settings: for inhibition at 10 µM: 48-hours treatment; for IC50: 48 hours, AlamarBlue, cancer cell line
Experimental: (§1) The cancer cell lines used in this study included human lung carcinoma (A549), human breast carcinoma (BT20 and MCF-7) and human osteosarcoma (U2OS), with the normal cell lines human peripheral lung epithelial cells (HPL1A) and human mammary epithelial cells (HMEC) serving as controls. A549, BT20, MCF-7, U2OS and HMEC cells were purchased from American Type Culture Collection (ATCC, USA), and HPL1A cells were obtained from Nagoya University, Japan. A549 and BT20 were grown in RPMI-1640 (Sigma), MCF-7 was grown in Dulbecco's Modified Eagle Medium (DMEM) (Sigma) supplemented with 0.01 mg/ml human recombinant insulin (Sigma), U2OS and HMEC were grown in McCoy's 5A (ATCC), and HPL1A was grown in DMEM/F-12K (Sigma). The mediums were supplemented with 10% Fetal Bovine Serum (FBS) (Gibco), 1% penicillin and streptomycin and incubated in a humidified atmosphere with 5% CO2 at 37° C.
(§2) The proliferation inhibition potential of cis- and trans-gnetin H was determined by a fluorescence dye staining method. Cells were seeded in a 96-well tissue culture-treated plate (BD Falcon) at a density of 4000 cells/well, and treated with cis- or trans-gnetin H for 48 hours. AlamarBlue dye (Invitrogen) was used to assess the viability of cells according to the manufacturer's instructions; the fluorescent intensity was read on a SpectraMax M2e microplate reader (Molecular Devices Inc.).
(§3) For the determination of IC50 values, cells were treated with a serial dilution (320 μM, 100 μM, 32 μM, 10 μM, 3.2 μM, and 0.32 μM) of cis- or trans-gnetin H for 48 hours. Cell viability was determined with AlamarBlue dye (Invitrogen) and the IC50 values were calculated using non-linear regression analysis.

[2] = test system: caspase 3/7 in A549 cells; experiment: Caspase 3/7 activation assay (Caspase-Glo 3/7); format: cell-based, human; settings: 100 μM
Experimental: Caspase 3/7 activity was analyzed using an in-situ luminescent marker. A549 and BT20 cells were seeded in a white 96-well plate (Greiner) at a density of 8000 cells/well, and treated with 100 μM cis- or trans-gnetin H for 24 hours. Caspase activity was then determined using the Caspase-Glo 3/7 Assay (Promega) according to the manufacturer's instructions. The luminescence of each sample was measured using a SpectraMax M2e Microplate Reader (Molecular Devices Inc.).

[3] = test system: U2OS cells (human osteosarcoma); experiment: Inhibition of cell proliferation, AlamarBlue fluorescent assay, U2OS; format: cell-based; settings: 48 hours, cancer cell line
Experimental: as §1
as §2, with “Inc.). […]” for “Inc.).”

[4] = test system: HPL1A cells (human peripheral lung epithelial cells); experiment: Inhibition of cell proliferation, AlamarBlue fluorescent assay, HPL1A normal control; format: cell-based; settings: for inhibitory effects on normal HPL1A cells: 10 uM, up to 48 hours; for IC50: Homo sapiens, HPL1A, 48 hours, AlamarBlue, normal cell line
Experimental: as §1, §2, §3

[5] = test system: phosphorylated p65 (Ser536) in LPS-stimulated THP-1 cells; experiment: Western blot, p65 phosphorylation; format: cell-based, human
Experimental: (§4) THP-1 cells were maintained in RPMI 1640 medium supplemented with 10% complement-inactivated FBS and 1% penicillin/streptomycin (complete culture medium) at 37° C. with 5% CO2 supplemented. Cell concentrations were adjusted to desired concentrations for each experiment by centrifugation at 500×g for 5 min and resuspended in complete culture medium with 100 nM of PMA. Cell concentration was adjusted to 5×10^5 cells/ml for all assays and 2.5×10^5 cells/ml were used for NF-κB nuclear translocation assay. Cells were seeded onto 96-, 24-, or 12-well plates and incubated for 48 to 72 h to allow for differentiation. Cells were washed with serum-free RPMI 1640 medium before each experiment to remove the undifferentiated cells.
(§5) Differentiated THP-1 cells were pretreated with various concentrations of cis-gnetin H, trans-gnetin H, or 10 μM of Bay 11-7082 for 1 h and stimulated with 1 μg/ml of LPS for 15 min. Cells were lysed with radio-immunoprecipitation assay (RIPA; 1% Triton X-100, 0.5% Sodium deoxycholate, 0.1% sodium dodecyl sulfate, 150 mM sodium chloride, and 50 mM Tris-chloride) lysis buffer that contained protease and phosphatase inhibitor cocktail. Cell lysates were then tested for protein concentration using a BCA protein assay, and diluted with RIPA lysis buffer to normalize protein concentration in all samples. […]

[6] = test system: phosphorylated IKK α/β (Ser176/180) in LPS-stimulated THP-1 cells; experiment: Western blot, IKK β phosphorylation; format: cell-based, human
Experimental: as §4, §5

[7] = Stability testing, 6 months in the dark at room temperature, HPLC; format: physicochemical; settings: 6-month storage in the dark at room temperature, 1 mg/ml in methanol
Experimental: For stability testing, cis- and trans-gnetin H were dissolved with methanol to a concentration of 1 mg/ml. The stock solutions were sealed in a glass bottle and kept in the dark at room temperature for 6 months and then the purity of the two compounds was tested using the HPLC method previously described (He et al., J. Liq. Chromatog. Rel. Technol. 2013; 36:1708-1724). For conversion testing, cis- and trans-gnetin H were individually illuminated with a 12-watt fluorescent lamp for 2, 4 and 6 hours, and the compounds were identified using HPLC.

[8] = test system: MCF-7 cells (human breast carcinoma); experiment: Inhibition of cell proliferation, AlamarBlue fluorescent assay, MCF-7; format: cell-based; settings: MCF7, 48 hours, cancer cell line
Experimental: as §1
as §2, with “Inc.). […]” for “Inc.).”

A549 cells = experiment: Cell cycle analysis by flow cytometry, A549; format: cell-based, human; settings: 100 μM, 24 hours
Experimental: A549 and BT20 cells were first synchronized in the G0 phase by culturing cells for 24 hours in serum-free medium and then treated with 100 μM cis- or trans-gnetin H for 24 hours, respectively. Cell cycle analysis was done using propidium iodide (PI) staining as described (An et al., Mol. Cancer Ther. 2007; 6:61-9) and the cells were analyzed on a Guava Flow Cytometer with InCyte software (Millipore).

| IC50 [1] [µM] | IC50 [3] [µM] | chemical identity after storage [7] | IC50 [8] [µM] | Compound | inhibition at 10 µM [1] [%] | activities of caspase 3/7 compared with untreated A549 cells [2] [fold] | inhibitory effects on normal HPL1A cells [4] | IC50 [4] [µM] | p65 phosphorylation ([5]; only at the highest concentration, 50 μM) | IKK β phosphorylation [6] | G0-G1 subpopulation, A549 (A549 cells) | M and G2-S subpopulation, A549 (A549 cells) | p65 phosphorylation ([5]; both 15 and 30 μM) |
| --- | --- | --- | --- | --- | --- | --- | --- | --- | --- | --- | --- | --- | --- |
| 2.8 | 9.32 | no obvious changes | 10 | Oc1ccc(/C=C\c2c3c(cc4c2[C@H](c2cc(O)cc(O)c2)[C@@H](c2ccc(O)cc2)O4)O[C@H](c2ccc(O)cc2)[C@H]3c2cc(O)cc(O)c2)cc1 [cis-gnetin H] | ~99 | 3.65 | no such obvious inhibitory effects | 91 | significantly inhibited | significantly inhibited | increased significantly | significant decrease | – |
| 2.6 | 3.1 | no obvious changes | 7.58 | Oc1ccc(/C=C/c2c3c(cc4c2[C@H](c2cc(O)cc(O)c2)[C@@H](c2ccc(O)cc2)O4)O[C@H](c2ccc(O)cc2)[C@H]3c2cc(O)cc(O)c2)cc1 [trans-gnetin H] | ~99 | 2.7 | no such obvious inhibitory effects | 72 | – | significantly inhibited | increased significantly | significant decrease | significantly inhibited |
